Laboratory results: PMC12561106, “STOP Strategy to Inhibit P. falciparum and S. aureus Growth: Molecular Mechanism Studies on Purposely Designed Hybrids” (Antibiotics, 2025)
In brackets after ≈: the same amount, converted by molar mass. Read-outs that look alike come from different tables or passages of the source.

Columns and labels:
[1] = cell viability and proliferation assay (CCK-8/WST8); type: cell-based; details: human, WS1 cells (human-derived fibroblasts, ATCC CRL-1502), mean value with standard deviation
Description: WS1 cells (ATCC CRL-1502) were selected as a model system to investigate the effect of PTZ-quinoline hybrid compounds on human-derived fibroblasts. Briefly, cells were cultured in DMEM-High glucose supplemented with 10% fetal bovine serum (FBS) (Carlo Erba Reagents, Milan, Italy), 100 U/mL penicillin, and 100 µg/mL streptomycin at 37 °C with 5% CO2. For experiments, cells were seeded into 96-well plates at 0.7 × 10^4 cells/well, and incubated at 37 °C for 24 h. […] Cell viability was assessed by a WST8-based assay according to the manufacturer’s instructions (CCK-8, Cell Counting Kit-8, Dojindo Molecular Technologies, Rockville, MD, USA). After 48 h of incubation, culture medium was removed from each well, the monolayer was washed with PBS, and 100 µL of fresh medium containing 10 µL of CCK-8 solution was added. Following a 2 h incubation at 37 °C, the OD450nm was read, and data were expressed as the percentage of cell viability relative to the untreated controls. The CC50 was obtained on the corresponding dose–response curves generated as previously reported for IC50 values. Experiments were carried out in triplicate in three biological replicates.

[2] = system: P. falciparum CQ-sensitive (CQ-S) D10 strain; assay: antiplasmodial drug susceptibility assay (pLDH), CQ-sensitive strain; type: cell-based; details: Plasmodium falciparum, read-out: IC50 D10 (CQ-S)
Description: (§1) P. falciparum cultures were carried out according to Trager and Jensen with slight modifications. The CQ-sensitive strain D10 and the CQ-resistant strain W2 were maintained at 5% hematocrit (human A-positive erythrocytes) in RPMI 1640 medium (EuroClone S.p.A, Milan, Italy) with the addition of 1% AlbuMax (Invitrogen, San Diego, California, USA), 0.01% hypoxanthine, 20 mM Hepes, and 2 mM glutamine at 37 °C in a standard gas mixture (1% O2, 5% CO2, and 94% N2). […] Drugs were placed in 96-well flat-bottomed microplates, and serial dilutions were made. Asynchronous cultures with parasitaemia of 1–1.5% and 1% final hematocrit were aliquoted into the plates and incubated for 72 h at 37 °C. Parasite growth was determined spectrophotometrically (OD650nm) by measuring the activity of the parasite lactate dehydrogenase (pLDH), as described in a modified version of Makler’s method in control- and drug-treated cultures. The antiplasmodial activity is expressed as 50% inhibitory concentrations (IC50); each IC50 value is the mean ± standard deviation of at least three separate experiments performed in duplicate.

S. aureus ATCC 25923 = assay: broth microdilution antimicrobial assay (MIC, IC50); type: cell-based; details: Staphylococcus aureus, ATCC25923; for IC50: S. aureus ATCC 25923, 24 h, OD630, mean value with standard deviation, read-out: IC50 ATCC 25923; for MIC: broth microdilution, 24 h, range 100–0.19 µM
Description: (§2) Reference bacterial strains of Staphylococcus aureus (ATCC 25923) and Escherichia coli (ATCC 25922) were used in this study as Gram-positive and negative models, respectively. These reference strains were purchased from the American Type Culture Collection (ATCC, Manassas, VA, USA). Clinical isolates, identified by MALDI-TOF MS (Bruker Daltonik, GmbH, Bremen, Germany), were profiled for their antibiotic susceptibility by using the Vitek2 semiautomated system (bioMérieux, Craponne, France) and according to EUCAST (Version 12, 2022, http://www.eucast.org (accessed on 1 January 2022)). The bacterial cultures were routinely grown on 5% blood agar plates (Biolife Italiana S.r.l., Milan, Italy) and were freshly used in the antibacterial assays.
(§3) The minimum inhibitory concentrations (MICs) were determined using the microbroth dilution method in microtiter plates according to the Clinical and Laboratory Standards Institute (CLSI) guidelines. In short, microbial inocula were prepared at 0.5 McFarland in PBS and, subsequently, bacterial suspensions were diluted 1:200 in Mueller–Hinton broth (Sigma-Aldrich, St. Louis, MO, USA), while fungal inoculum was diluted 1:20 in RPMI-1640 medium (Gibco®, ThermoFisher Scientific Inc., Waltham, MA, USA), containing glucose 2%, 0.3% levo-glutamine buffered to pH 7.0 with 0.165 M 3-(N-morpholino)propanesulfonic acid (MOPS). A total of 100 µL of these microbial suspensions was introduced into a 96-well microplate and incubated with 100 µL of the compounds, two-fold serially diluted in the range of 100–0.19 µM. Positive controls (microbial suspensions in regular media), negative controls (only compounds), solvent controls (microbial suspensions incubated with DMSO dilutions), and the reference drug controls were included in the tests. The plate was incubated at 37 °C for 24 h, and subsequently the optical density at 630 nm (OD630nm) was spectrophotometrically measured. Experiments were performed in triplicate with three biological replicates. In addition to MIC, IC50 values were measured for the active compounds. The values, corresponding to the concentration of the compound giving rise to an inhibition of growth of 50%, were obtained by interpolation on dose–response curves generated by plotting the percentages of growth inhibition, relative to the positive control (set to 100% of growth), as a function of the tested concentrations (on a logarithm scale). Statistical analysis was carried out by using GraphPad Prism version 9.4.1 for Windows (GraphPad Software, San Diego, CA, USA, www.graphpad.com).

E. coli ATCC 25923 = assay: broth microdilution antimicrobial assay (MIC); type: cell-based; details: Escherichia coli, ATCC25923, 24 h, range 100–0.19 µM
C. albicans ATCC 10231 = assay: broth microdilution antifungal assay (MIC); type: cell-based; details: Candida albicans, ATCC10231, 24 h, range 100–0.19 µM
Description: The reference strain of Candida albicans (ATCC 10231) was used in the present study and maintained on Sabouraud Dextrose Agar (Biolife Italiana S.r.l., Milan, Italy) before the antifungal assays.
as §3

[3] = system: P. falciparum CQ-resistant (CQ-R) W2 strain; assay: antiplasmodial drug susceptibility assay (pLDH), CQ-resistant strain; type: cell-based; details: Plasmodium falciparum, read-out: IC50 W2 (CQ-R)
Description: as §1

[4] = system: clinical isolates of S. aureus (MRSA); assay: antibiotic susceptibility profiling of clinical isolates (Vitek2, EUCAST); type: cell-based, Staphylococcus aureus; details: for Antibiotic-resistance profile, MRSA 1: clinical isolate MRSA 1; for Antibiotic-resistance profile, MRSA 2: clinical isolate MRSA 2; for Antibiotic-resistance profile, MRSA 3: clinical isolate MRSA 3; for Antibiotic-resistance profile, MRSA 4: clinical isolate MRSA 4; for Antibiotic-resistance profile, MRSA 5: clinical isolate MRSA 5; for all read-outs here: key: R = Resistant; S = Susceptible; I = Intermediate
Description: as §2

[5] = P. falciparum D10, 72 h, pLDH, mean value with standard deviation
[6] = P. falciparum W2, 72 h, pLDH, mean value with standard deviation

| Compound | CC50 at 48 h [1] | MIC (S. aureus ATCC 25923) | MIC (E. coli ATCC 25923) | MIC (C. albicans ATCC 10231) | Antibiotic-resistance profile, MRSA 1 [4] | Antibiotic-resistance profile, MRSA 2 [4] | Antibiotic-resistance profile, MRSA 3 [4] | Antibiotic-resistance profile, MRSA 4 [4] | Antibiotic-resistance profile, MRSA 5 [4] | also measured |
| --- | --- | --- | --- | --- | --- | --- | --- | --- | --- | --- |
| Clc1ccc2c(c1)N(Cc1cn(CCCCCNc3ccnc4cc(Cl)ccc34)nn1)c1ccccc1S2 [Compound 6b, 7-chloro-N-(5-(4-((2-chloro-10H-phenothiazin-10-yl)methyl)-1H-1,2,3-triazol-1-yl)pentyl)quinolin-4-amine] | 34.3 ± 0.52 µM | 50 µM (≈ 28.1 µg/mL) | > 100 µM | > 100 µM | – | – | – | – | – | IC50 [2, 5]: 0.602 ± 0.314 µM; IC50 (S. aureus ATCC 25923): 25.1 ± 1.76 µM; IC50 [3, 6]: 0.184 ± 0.093 µM |
| Teicoplanin [TEC] | – | – | – | – | S | S | S | S | S | – |
| CC1(C)S[C@@H]2[C@H](NC(=O)[C@H](N)c3ccccc3)C(=O)N2[C@H]1C(=O)O [AMP, ampicillin, reference compound] | – | 4.2 µM (≈ 1.47 µg/mL) | 67.3 µM (≈ 23.5 µg/mL) | – | – | – | – | – | – | IC50 (S. aureus ATCC 25923): 2.59 ± 0.13 µM |
| CN(C)[C@@H]1C(O)=C(C(N)=O)C(=O)[C@@]2(O)C(O)=C3C(=O)c4c(O)cccc4[C@@](C)(O)[C@H]3C[C@@H]12 [TE, Tetracycline] | – | – | – | – | S | S | S | S | S | – |
| Penicillin | – | – | – | – | R | R | R | R | R | – |
| Clc1ccc2c(N3CCN(CCCn4cc(CN5c6ccccc6Sc6ccccc65)nn4)CC3)ccnc2c1 [Compound 8, 10-((1-(3-(4-(7-chloroquinolin-4-yl)piperazin-1-yl)propyl)-1H-1,2,3-triazol-4-yl)methyl)-10H-phenothiazine] | > 100 µM | > 100 µM | > 100 µM | > 100 µM | – | – | – | – | – | IC50 [2, 5]: 12.6 ± 0.241 µM; IC50 [3, 6]: 2.17 ± 0.243 µM |
| Cc1onc(-c2ccccc2)c1C(=O)N[C@@H]1C(=O)N2[C@@H]1SC(C)(C)[C@@H]2C(=O)O [OX, Oxacillin] | – | – | – | – | R | R | R | R | R | – |
| Clc1ccc2c(N3CCN(CCCCCN4c5ccccc5Sc5ccccc54)CC3)ccnc2c1 [Compound 3, 10-(5-(4-(7-chloroquinolin-4-yl)piperazin-1-yl)pentyl)-10H-phenothiazine] | > 100 µM | > 100 µM | > 100 µM | > 100 µM | – | – | – | – | – | IC50 [2, 5]: 2.34 ± 0.012 µM; IC50 [3, 6]: 0.99 ± 0.245 µM |
| CCN(CC)CCCC(C)Nc1ccnc2cc(Cl)ccc12 (centres unmarked) [CQ, chloroquine, reference compound] | – | – | – | – | – | – | – | – | – | IC50 ([2]; D10, 72 h): 0.025 ± 0.007 µM; IC50 ([3]; W2, 72 h): 0.42 ± 0.103 µM |
| OC(Cn1cncn1)(Cn1cncn1)c1ccc(F)cc1F [FLC, Fluconazole, reference compound] | – | – | – | 0.82 µM (≈ 0.251 µg/mL) | – | – | – | – | – | – |
| Clc1ccc2c(N3CCN(CCCN4c5ccccc5Sc5ccccc54)CC3)ccnc2c1 [Compound 1, 10-(3-(4-(7-chloroquinolin-4-yl)piperazin-1-yl)propyl)-10H-phenothiazine] | > 100 µM | > 100 µM | > 100 µM | > 100 µM | – | – | – | – | – | IC50 [2, 5]: 2.52 ± 0.84 µM; IC50 [3, 6]: 2.32 ± 1.05 µM |
| Clc1ccc2c(-n3cc(CN4c5ccccc5Sc5ccccc54)nn3)ccnc2c1 [Compound 7, 10-((1-(7-chloroquinolin-4-yl)-1H-1,2,3-triazol-4-yl)methyl)-10H-phenothiazine] | > 100 µM | > 100 µM | > 100 µM | > 100 µM | – | – | – | – | – | – |
| C[C@H]1COc2c(N3CCN(C)CC3)c(F)cc3c(=O)c(C(=O)O)cn1c23 [LVX, Levofloxacin] | – | – | – | – | R | R | R | R | R | – |
| CC[C@H]1OC(=O)[C@H](C)[C@@H](O[C@H]2C[C@@](C)(OC)[C@@H](O)[C@H](C)O2)[C@H](C)[C@@H](O[C@@H]2O[C@H](C)C[C@H](N(C)C)[C@H]2O)[C@](C)(O)C[C@@H](C)C(=O)[C@H](C)[C@@H](O)[C@]1(C)O [E, Erythromycin] | – | – | – | – | – | – | R | S | S | – |
| CN[C@H](CC(C)C)C(=O)N[C@H]1C(=O)N[C@@H](CC(N)=O)C(=O)N[C@H]2C(=O)N[C@H]3C(=O)N[C@H](C(=O)N[C@H](C(=O)O)c4cc(O)cc(O)c4-c4cc3ccc4O)[C@H](O)c3ccc(c(Cl)c3)Oc3cc2cc(c3O[C@@H]2O[C@H](CO)[C@@H](O)[C@H](O)[C@H]2O[C@H]2C[C@](C)(N)[C@H](O)[C@H](C)O2)Oc2ccc(cc2Cl)[C@H]1O [VA, Vancomycin] | – | – | – | – | S | S | S | S | S | – |
| CCC[C@@H]1C[C@@H](C(=O)N[C@@H]([C@H]2O[C@H](SC)[C@H](O)[C@@H](O)[C@H]2O)[C@H](C)Cl)N(C)C1 [CM, Clindamicyn] | – | – | – | – | – | – | R | S | S | – |
| CNC(C)C1CCC(N)C(OC2C(N)CC(N)C(OC3OCC(C)(O)C(NC)C3O)C2O)O1 (centres unmarked) [GEN, gentamicin] | – | 6.6 µM (≈ 3.15 µg/mL) | 1.03 µM (≈ 0.492 µg/mL) | – | S | S | S | S | S | IC50 (S. aureus ATCC 25923): 4 ± 0.05 µM |
| Clc1ccc2c(N3CCN(CCCCN4c5ccccc5Sc5ccccc54)CC3)ccnc2c1 [Compound 2, 10-(4-(4-(7-chloroquinolin-4-yl)piperazin-1-yl)butyl)-10H-phenothiazine] | > 100 µM | > 100 µM | > 100 µM | > 100 µM | – | – | – | – | – | – |
